Assay results published in US6352958B1, “Cycloimido-substituted benzofused heterocyclic herbicides” (FMC Corporation, priority 1997, dated 2002).

Legend:
Format in all cases: in vivo
[1] = tested on: soybean (Glycine max var. Winchester); assay: Preemergence herbicidal activity, soybean; conditions: Rate of Application 0.3 Kg/Ha, examined after 12-17 days
[2] = tested on: wheat (Triticum aestivum var. Lew); assay: Preemergence herbicidal activity, wheat; conditions: Rate of Application 0.3 Kg/Ha, examined after 12-17 days
[3] = tested on: field corn (Zea mays var. Pioneer 3732); assay: Preemergence herbicidal activity, corn; conditions: Rate of Application 0.3 Kg/Ha, examined after 12-17 days
[4] = tested on: velvetleaf (Abutilon theophrasti); assay: Preemergence herbicidal activity, velvetleaf; conditions: Rate of Application 0.3 Kg/Ha, examined after 12-17 days
[5] = tested on: morningglory (Ipomea lacunosa or Ipomea hederacea); assay: Preemergence herbicidal activity, morningglory; conditions: Rate of Application 0.3 Kg/Ha, examined after 12-17 days
[6] = tested on: common chickweed (Stellaria media); assay: Preemergence herbicidal activity, chickweed; conditions: Rate of Application 0.3 Kg/Ha, examined after 12-17 days
[7] = tested on: common cocklebur (Xanthium strumarium L.); assay: Preemergence herbicidal activity, cocklebur; conditions: Rate of Application 0.3 Kg/Ha, examined after 12-17 days
[8] = tested on: blackgrass (Aloepecurus myosuroides); assay: Preemergence herbicidal activity, blackgrass; conditions: Rate of Application 0.3 Kg/Ha, examined after 12-17 days
[9] = tested on: green foxtail (Setaria viridis); assay: Preemergence herbicidal activity, green foxtail; conditions: Rate of Application 0.3 Kg/Ha, examined after 12-17 days
[10] = tested on: Johnsongrass (Sorghum halepense); assay: Preemergence herbicidal activity, johnsongrass; conditions: Rate of Application 0.3 Kg/Ha, examined after 12-17 days
[11] = tested on: soybean (Glycine max var. Winchester); assay: Postemergence herbicidal activity, soybean; conditions: rate of application 0.3 Kg/Ha, rated after 12-17 days
[12] = tested on: wheat (Triticum aestivum var. Lew); assay: Postemergence herbicidal activity, wheat; conditions: rate of application 0.3 Kg/Ha, rated after 12-17 days
[13] = tested on: field corn (Zea mays var. Pioneer 3732); assay: Postemergence herbicidal activity, corn; conditions: rate of application 0.3 Kg/Ha, rated after 12-17 days
[14] = tested on: velvetleaf (Abutilon theophrasti); assay: Postemergence herbicidal activity, velvetleaf; conditions: rate of application 0.3 Kg/Ha, rated after 12-17 days
[15] = tested on: morningglory (Ipomea lacunosa or Ipomea hederacea); assay: Postemergence herbicidal activity, morningglory; conditions: rate of application 0.3 Kg/Ha, rated after 12-17 days
[16] = tested on: common chickweed (Stellaria media); assay: Postemergence herbicidal activity, chickweed; conditions: rate of application 0.3 Kg/Ha, rated after 12-17 days
[17] = tested on: common cocklebur (Xanthium strumarium L.); assay: Postemergence herbicidal activity, cocklebur; conditions: rate of application 0.3 Kg/Ha, rated after 12-17 days
[18] = tested on: blackgrass (Aloepecurus myosuroides); assay: Postemergence herbicidal activity, blackgrass; conditions: rate of application 0.3 Kg/Ha, rated after 12-17 days
[19] = tested on: green foxtail (Setaria viridis); assay: Postemergence herbicidal activity, green foxtail; conditions: rate of application 0.3 Kg/Ha, rated after 12-17 days
[20] = tested on: Johnsongrass (Sorghum halepense); assay: Postemergence herbicidal activity, johnsongrass; conditions: rate of application 0.3 Kg/Ha, rated after 12-17 days

| SMILES | PREEMERGENCE HERBICIDAL ACTIVITY (% CONTROL) SOY [1] [%] | PREEMERGENCE HERBICIDAL ACTIVITY (% CONTROL) WHT [2] [%] | PREEMERGENCE HERBICIDAL ACTIVITY (% CONTROL) CRN [3] [%] | PREEMERGENCE HERBICIDAL ACTIVITY (% CONTROL) ABUTH [4] [%] | PREEMERGENCE HERBICIDAL ACTIVITY (% CONTROL) IPOSS [5] [%] | PREEMERGENCE HERBICIDAL ACTIVITY (% CONTROL) STEME [6] [%] | PREEMERGENCE HERBICIDAL ACTIVITY (% CONTROL) XANPE [7] [%] | PREEMERGENCE HERBICIDAL ACTIVITY (% CONTROL) ALOMY [8] [%] | PREEMERGENCE HERBICIDAL ACTIVITY (% CONTROL) SETVI [9] [%] | PREEMERGENCE HERBICIDAL ACTIVITY (% CONTROL) SORHA [10] [%] | Postemergence herbicidal activity (% control) SOY [11] [%] | Postemergence herbicidal activity (% control) WHT [12] [%] | Postemergence herbicidal activity (% control) CRN [13] [%] | Postemergence herbicidal activity (% control) ABUTH [14] [%] | Postemergence herbicidal activity (% control) IPOSS [15] [%] | Postemergence herbicidal activity (% control) STEME [16] [%] | Postemergence herbicidal activity (% control) XANPE [17] [%] | Postemergence herbicidal activity (% control) ALOMY [18] [%] | Postemergence herbicidal activity (% control) SETVI [19] [%] | Postemergence herbicidal activity (% control) SORHA [20] [%] |
| --- | --- | --- | --- | --- | --- | --- | --- | --- | --- | --- | --- | --- | --- | --- | --- | --- | --- | --- | --- | --- |
| CCCC(C)c1cc2c(Cl)cc(F)c(-n3c(=O)cc(C(F)(F)F)n(C)c3=O)c2o1 (stereo not drawn) [Compound 229] | 100 | 70 | 90 | 100 | 100 | 100 | 95 | 80 | 100 | 100 | 95 | 60 | 80 | 100 | 100 | 100 | 100 | 70 | 100 | 100 |
| C=Cc1cc2c(Cl)cc(F)c(-n3c(=O)cc(C(F)(F)F)n(C)c3=O)c2o1 [Compound 230] | 100 | 40 | 80 | 100 | 100 | 100 | 100 | 80 | 100 | 100 | 95 | 40 | 80 | 100 | 100 | 90 | 100 | 70 | 100 | 90 |
| CC(Cl)c1cc2c(Cl)cc(F)c(-n3c(=O)cc(C(F)(F)F)n(C)c3=O)c2o1 (stereo not drawn) [Compound 234] | 100 | 100 | 100 | 100 | 100 | 100 | 100 | 80 | 100 | 100 | 100 | 100 | 100 | 100 | 100 | 100 | 100 | 100 | 100 | 100 |
| CC(F)c1cc2c(Cl)cc(F)c(-n3c(=O)cc(C(F)(F)F)n(C)c3=O)c2o1 (stereo not drawn) [Compound 235] | 100 | 90 | 100 | 100 | 100 | 100 | 100 | 80 | 100 | 100 | 100 | 100 | 100 | 100 | 100 | 100 | 100 | 100 | 100 | 100 |
| Cn1c(C(F)(F)F)cc(=O)n(-c2c(F)cc(Cl)c3cc(CCCl)oc23)c1=O [Compound 236] | 100 | 70 | 95 | 100 | 100 | 100 | 100 | 80 | 100 | 100 | 100 | 75 | 90 | 100 | 100 | 100 | 100 | 80 | 100 | 100 |
| Cn1c(C(F)(F)F)cc(=O)n(-c2c(F)cc(Cl)c3cc(C(C)(C)O)oc23)c1=O [Compound 242] | 100 | 100 | 100 | 100 | 100 | 100 | 100 | 100 | 100 | 100 | 100 | 100 | 100 | 100 | 100 | 100 | 100 | 100 | 100 | 100 |
